Test results reported in patent US10202368B2, “CXCR7 receptor modulators” (IDORSIA PHARMACEUTICALS LTD, priority 2014, dated 2019).

Biological target: CXCR7 (Homo sapiens (Human), UniProt P25106)
Assay: PathHunter CHO-K1 CXCR7 β-arrestin assay (agonistic activity)
Format: cell-based
Conditions: β-arrestin recruitment in PathHunter CHO-K1 CXCR7 β-arrestin cells, 90 minutes at 37° C., geometric mean values
Description: The CXCI12 receptor and CXCR7 agonistic activities of the compounds of formula (I) are determined in accordance with the following experimental method.
The assay is using the PathHunter™ CHO-K1 CXCR7 β-arrestin cell line from DiscoverX. The system is based on the Enzyme Fragment Complementation Technology. Two complementing fragments of the β-galactosidase enzyme are expressed within stably transfected cells. The larger portion of β-gal, termed EA for Enzyme Acceptor, is fused to the C-terminus of b-arrestin 2. The smaller fragment, termed ProLink™ tag, is fused to CXCR7 at the C-terminus. Upon activation, b-arrestin is recruited which forces the interaction of ProLink and EA, allowing complementation of the two fragments of b-gal and the formation of a functional enzyme which is capable of hydrolysing the substrate and generating a chemiluminescent signal.
CHO-K1 CXCR7 β-arrestin cells are detached from culture dishes with a cell dissociation buffer (Invitrogen, #13151-014) and collected in growing medium (F12 HAMS 90% (v/v)/FCS 10% (v/v), Penicillin/streptomycin 1% (v/v)). 5000 cells per well (in 20 μl) are seeded in a 384 well plate (white-walled, clear bottom; BD Falcon #353274). The plate is incubated at 37° C./5% CO2 for 24 hours. Medium is then replaced by 20 μl OPTIMEM (Invitrogen #31985) for 3 to 4 hours. Test compounds are dissolved at 10 mM in DMSO and serially diluted in DMSO to 200× of the final concentration for dose response curves. Compounds are then diluted 1:33.3 in HBSS1X. 5 μl/well of HBSS1X/20 mM HEPES/0.2% BSA are added to the assay plate followed by addition of 5 μl/well of diluted compounds. CXCL12 (Peprotech #300-28A) may be used as a reference agonist. The plate is incubated for 90 minutes at 37° C. 12 μl of detection reagent (Path Hunter Detection Kit, DiscoveRx, #93-0001) is transferred to the assay plate and to the plate is incubated for 1 hour at room temperature. Luminescent signal is read in a microplate reader (FLUOstar Optima, bmg). The calculated EC50 values may fluctuate depending on the daily cellular assay performance. Fluctuations of this kind are known to those skilled in the art. Average EC50 values from several measurements are given as geometric mean values.

Chain of CXCR7 (P25106 whole entry): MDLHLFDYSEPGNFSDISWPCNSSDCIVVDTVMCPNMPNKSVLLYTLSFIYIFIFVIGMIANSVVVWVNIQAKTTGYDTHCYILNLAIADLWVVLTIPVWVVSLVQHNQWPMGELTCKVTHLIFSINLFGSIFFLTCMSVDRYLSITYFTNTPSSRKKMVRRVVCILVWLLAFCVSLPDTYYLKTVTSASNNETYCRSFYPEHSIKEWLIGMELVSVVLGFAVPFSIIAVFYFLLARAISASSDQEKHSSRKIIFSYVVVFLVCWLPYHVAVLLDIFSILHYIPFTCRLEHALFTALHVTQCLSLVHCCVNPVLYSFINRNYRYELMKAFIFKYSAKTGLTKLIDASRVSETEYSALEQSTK
Chain of CXCR7 (P32121 whole entry partner): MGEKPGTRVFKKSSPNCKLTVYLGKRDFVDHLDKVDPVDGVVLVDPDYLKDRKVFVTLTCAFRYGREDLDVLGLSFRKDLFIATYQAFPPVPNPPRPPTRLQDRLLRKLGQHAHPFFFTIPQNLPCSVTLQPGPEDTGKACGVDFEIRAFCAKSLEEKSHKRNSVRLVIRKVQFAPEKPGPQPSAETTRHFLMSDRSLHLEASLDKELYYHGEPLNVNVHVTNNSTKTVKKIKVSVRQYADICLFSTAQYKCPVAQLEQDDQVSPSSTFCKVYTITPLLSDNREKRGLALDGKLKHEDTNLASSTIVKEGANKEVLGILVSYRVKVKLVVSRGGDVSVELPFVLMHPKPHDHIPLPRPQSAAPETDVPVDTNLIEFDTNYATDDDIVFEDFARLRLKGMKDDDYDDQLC

Structure (SMILES) | EC50 [nM]
CC(C)NCCN(Cc1ccccc1C(F)(F)F)C(=O)CNc1cccc2c1C(=O)N(CC1CC1)CCO2 [Example 34, 2-(4-Cyclopropylmethyl-5-oxo-2,3,4,5-tetrahydro-benzo[f][1,4]oxazepin-6-ylamino)-N-(2-isopropylamino-ethyl)-N-(2-trifluoromethyl-benzyl)-acetamide] | 5
CC(C)N(CCN(Cc1ccccc1C(F)(F)F)C(=O)CNc1cccc2c1C(=O)N(CC1CC1)CCO2)C(=O)OC(C)(C)C [Example 35, {2-[[2-(4-Cyclopropylmethyl-5-oxo-2,3,4,5-tetrahydro-benzo[f][1,4]oxazepin-6-ylamino)-acetyl]-(2-trifluoromethyl-benzyl)-amino]-ethyl}-isopropyl-carbamic acid tert-butyl ester] | 420
CNCCN(Cc1ccccc1C(F)(F)F)C(=O)CNc1cccc2c1C(=O)N(CC1CC1)CCO2 [Example 36, 2-(4-Cyclopropylmethyl-5-oxo-2,3,4,5-tetrahydro-benzo[f][1,4]oxazepin-6-ylamino)-N-(2-methylamino-ethyl)-N-(2-trifluoromethyl-benzyl)-acetamide] | 12
CN(CCN(Cc1ccccc1C(F)(F)F)C(=O)CNc1cccc2c1C(=O)N(CC1CC1)CCO2)C(=O)OC(C)(C)C [Example 37, {2-[[2-(4-Cyclopropylmethyl-5-oxo-2,3,4,5-tetrahydro-benzo[f][1,4]oxazepin-6-ylamino)-acetyl]-(2-trifluoromethyl-benzyl)-amino]-ethyl}-methyl-carbamic acid tert-butyl ester] | 410
CN(C)CCN(Cc1ccccc1C(F)(F)F)C(=O)CNc1cccc2c1C(=O)N(CC1CC1)CCO2 [Example 38, 2-(4-Cyclopropylmethyl-5-oxo-2,3,4,5-tetrahydro-benzo[f][1,4]oxazepin-6-ylamino)-N-(2-dimethylamino-ethyl)-N-(2-trifluoromethyl-benzyl)-acetamide] | 4
CCN1CCOc2c(NCC(=O)N(CCN(C)C)Cc3ncccc3C)cccc2C1=O [Example 39, N-(2-Dimethylamino-ethyl)-2-(4-ethyl-5-oxo-2,3,4,5-tetrahydro-benzo[f][1,4]oxazepin-9-ylamino)-N-(3-methyl-pyridin-2-ylmethyl)-acetamide] | 400
CCN1CCOc2c(NCC(=O)N(CCNC(C)(C)C)Cc3ccccc3C(F)(F)F)cccc2C1=O [Example 40, N-(2-tert-Butylamino-ethyl)-2-(4-ethyl-5-oxo-2,3,4,5-tetrahydro-benzo[f][1,4]oxazepin-9-ylamino)-N-(2-trifluoromethyl-benzyl)-acetamide] | 7
CCN1CCOc2c(NCC(=O)N(CCN(C)C)Cc3ccccc3C(F)(F)F)cccc2C1=O [Example 41, N-(2-Dimethylamino-ethyl)-2-(4-ethyl-5-oxo-2,3,4,5-tetrahydro-benzo[f][1,4]oxazepin-9-ylamino)-N-(2-trifluoromethyl-benzyl)-acetamide] | 22
CN(C)CCN(Cc1ccccc1C(F)(F)F)C(=O)CNc1cccc2c1N(C)CCN(CC1CC1)C2=O [Example 42, 2-(4-Cyclopropylmethyl-1-methyl-5-oxo-2,3,4,5-tetrahydro-1H-benzo[e][1,4]diazepin-9-ylamino)-N-(2-dimethylamino-ethyl)-N-(2-trifluoromethyl-benzyl)-acetamide] | 7
CN1CCN(CC2CC2)C(=O)c2cccc(NCC(=O)N(CCNC(C)(C)C)Cc3ccccc3C(F)(F)F)c21 [Example 43, N-(2-tert-Butylamino-ethyl)-2-(4-cyclopropylmethyl-1-methyl-5-oxo-2,3,4,5-tetrahydro-1H-benzo[e][1,4]diazepin-9-ylamino)-N-(2-trifluoromethyl-benzyl)-acetamide] | 4
Cc1cccnc1CN(CCN(C)C)C(=O)CNc1cccc2c1N(C)CCN(CC1CC1)C2=O [Example 44, 2-(4-Cyclopropylmethyl-1-methyl-5-oxo-2,3,4,5-tetrahydro-1H-benzo[e][1,4]diazepin-9-ylamino)-N-(2-dimethylamino-ethyl)-N-(3-methyl-pyridin-2-ylmethyl)-acetamide] | 130
